The text below walks through data of US11078499B2, “Host cells and methods for producing toluene biochemically” (The Regents of the University of California, priority 2018, dated 2021).

For the assay, the system named is PhdB. Nature of the assay: Assays testing whether PhdB could decarboxylate o-, m-, or p-hydroxyphenylacetate, equimolar with phenylacetic acid-2-13C. It counts as biochemical, Acidobacteria strain Tolsyn. The following applies: for PhdB activity on substrate: relative to phenylacetate, equimolar 2.5 mM. Here is the method:
Analogous assays with o- and m-hydroxyphenylacetate similarly indicated very low (in this case, undetectable) PhdB activity for these hydroxyphenylacetate isomers, whereas labeled toluene is easily detected.
Assays for phenylacetate decarboxylase activity were performed under strictly anaerobic conditions within a glove box. Assays, which were performed in 4-mL glass vials sealed with 13-mm diameter PTFE Mininert screw-cap valves (Sigma-Aldrich), contained […] PhdA in assay buffer [50 mM TRIS (pH 7.5), 150 mM NaCl, 1 mM MgCl2, 5 mM (NH4)2SO4, 5 mM DTT)], to which 2 mM dithionite was added and incubated for ˜1 hour, followed by the addition of 2 mM SAM, 2.5 μM PhdB in assay buffer, and 2.5 mM phenylacetic acid-2-^13C in a final volume of 1 or 1.5 mL (depending on the specific experiment). Quantitative standards contained the same headspace/liquid ratios as assays and a dimensionless Henry's constant of 0.27^43 was used to calculate aqueous concentration. Negative controls were run concurrently and were identical except for the absence of SAM (FIG. 6). The vials were shaken on a tabletop orbital shaker at low speed. Gaseous headspace samples (100 μL) were taken within the glove box using a 500-μL gastight syringe (Sample-Lok series A-2; Sigma-Aldrich) and analyzed immediately by GC/MS, as described previously^8. Briefly, toluene was analyzed by static headspace, electron ionization (EI) GC/MS using a model 7890A GC (Agilent, Santa Clara, Calif.) with a DB-5 fused silica capillary column (30-m length, 0.25-mm inner diameter, 0.25-μm film thickness; Agilent) coupled to an HP 5975C series quadrupole mass spectrometer. As described elsewhere^8, the identity of [methyl-^13C]toluene was confirmed with the expected m/z 93/92 ratio of 0.6. Replicates involved separate assays rather than multiple analyses of a given assay sample. In assays testing whether PhdB could decarboxylate o-, m-, or p-hydroxyphenylacetate to o-, m-, or p-cresol, conditions were as described above except that equimolar amounts (2.5 mM) of o-, m-, or p-hydroxyphenylacetic acid (Sigma) and phenylacetic acid-2-^13C were added, and GC/MS analysis of o-, m-, or p-cresol in 1-μL liquid injections of concentrated hexane extracts were conducted as described previously^8. The identity of o-, m-, or p-cresol was assessed using retention time and the expected m/z 108/107 ratio of 1.16, 1.05, or 0.83, respectively, based on authentic standards.

`O=C(O)Cc1cccc(O)c1` [m-hydroxyphenylacetate, m-hydroxyphenylacetic acid]: the “PhdB activity on substrate” value is on record as “undetectable”. Still for that read-out and setting: for `O=C(O)Cc1ccccc1O` [o-hydroxyphenylacetate, o-hydroxyphenylacetic acid] the value was “undetectable”. As to `O=C(O)Cc1ccc(O)cc1` [p-hydroxyphenylacetate], the “PhdB activity on substrate” value was “far lower activity”. Besides, the “p-cresol level relative to that expected if PhdB activity were comparable to phenylacetate” value (equimolar phenylacetate and p-hydroxyphenylacetate (2.5 mM) with PhdA, PhdB and SAM) is reported as “approximately 100 fold lower”.
